Where two headings read alike, the source gives them in different places.
Assay: Terminal plasma and brain concentrations in AC-MES studies (UHPLC-MS/MS)
Type: in vivo, mouse
Protocol: Sample Collection and Preparation: Mice were anesthetized by isoflurane inhalation (according to SOP TECH-018) until they reached a surgical plane of anesthesia. Then a syringe (1 mL syringe with a 22 gauge needle) was inserted under the sternum into the heart (according to SOP TECH-031). Approximately 0.5 mL of blood was collected, deposited into a K2EDTA tube, and stored on ice. Animals were then euthanized by cervical dislocation. Brains were removed, placed into a pre-weighed vial, and snap frozen on dry ice. At the end of the sample collection, blood was centrifuged at 4000 rpm for 10 minutes at 4° C., and the plasma pipetted into a labeled tube. All samples were stored in a −80° C. freezer until the time of bioanalysis.
Plasma Samples: Extraction of plasma samples was carried out by protein precipitation using acetonitrile. Diluted plasma samples (50 μL) were mixed with 50 μL of internal standard (IS) solution in 1:1 acetonitrile:water (v:v) followed by addition of 200 μL of acetonitrile. Samples were vortexed for 30 seconds, centrifuged at 13,000 rpm for 20 minutes, decanted into a 96-well plate and further centrifuged at 4000 rpm for 20 minutes. The samples were analyzed by ultra-high performance liquid chromatography electrospray ionization tandem mass spectrometry (UHPLC-ESI-MS/MS) as described in the bioanalysis procedure below.
Brain Samples: Prior to extraction, pre-weighed whole brains were homogenized in 1:1 acetonitrile:water (v:v) (2 mL per mouse brain) using an IKA T18 Ultra-Turrax Homogenizer at the setting of 4 for approximately 1 minute. The homogenate was centrifuged at 13,000 rpm for 20 minutes and 50 μL of the supernatant were treated exactly as described in above for plasma samples.
Bioanalysis Procedures: All samples, including plasma and brain homogenate extracts (including calibration standards and quality control (QC) samples prepared in K2EDTA mouse plasma), were extracted by protein precipitation. To each 50 μL aliquot of sample, 50 μL of IS solution (2500 ng/mL of Lacosamide in water:acetonitrile (1:1)) and 50 μL of 6% (v:v) phosphoric acid in water were added, then 200 μL acetonitrile was added. The samples in 1.7 mL tubes were vortex-mixed then centrifuged for 20 minutes at 13,000 rpm. Fifty microliters of the supernatant was mixed with 150 μL of water:acetonitrile (1:1) in a 96 well plate, which was centrifuged post-mixing for 20 minutes at 4000 rpm. The samples were then ready for UHPLC-MS/MS analysis.
Samples were analyzed for Compound A by a research-grade UHPLC-MS/MS method using the conditions listed below.
Samples were analyzed for Lacosamide by a research-grade UHPLC-MS/MS method using the conditions listed below.
At least three QC samples, one at each concentration, had to show back-calculated values within ±20% of their nominal concentrations for the whole sample batch to be valid.
The Blinding and Randomization, Clinical Observations, AC-MES Assay, Sample Collection and Preparation, Plasma and Brain Samples Analysis, and Bioanalysis Procedures in Example 4 were identical to those used in Example 2.
Sample concentration determination and Data Processing and Analysis in Example 4 was identical to Example 2.

COC[C@@H](NC(C)=O)C(=O)NCc1ccccc1 [Lacosamide, reference compound]
Kp at 2 h (CF-1, mouse, in vivo, 6 mg/kg, Study 2A, Lacosamide 6 mg/kg PO, 2 h, read-out: B/P Ratio): 0.54
concentration at 2 h (CF-1, mouse, in vivo, 6 mg/kg, Study 2A, Lacosamide 6 mg/kg PO, 2 h, read-out: Mean Brain): 4.85 µM
concentration at 2 h (CF-1, mouse, in vivo, 6 mg/kg, Study 2A, Lacosamide 6 mg/kg PO, 2 h, read-out: Mean Plasma): 9.07 µM
Kp at 2 h (CF-1, mouse, in vivo, 6 mg/kg, Study 2D, Lacosamide 6 mg/kg PO, 2 h, read-out: B/P Ratio): 1.15
concentration at 2 h (CF-1, mouse, in vivo, 6 mg/kg, Study 2D, Lacosamide 6 mg/kg PO, 2 h, read-out: Mean Brain): 7.95 µM
concentration at 2 h (CF-1, mouse, in vivo, 6 mg/kg, Study 2D, Lacosamide 6 mg/kg PO, 2 h, read-out: Mean Plasma): 6.9 µM
Kp at 2 h (CF-1, mouse, in vivo, 8 mg/kg, Study 2A, Lacosamide 8 mg/kg PO, 2 h, read-out: B/P Ratio): 0.58
concentration at 2 h (CF-1, mouse, in vivo, 8 mg/kg, Study 2A, Lacosamide 8 mg/kg PO, 2 h, read-out: Mean Brain): 6.27 µM
concentration at 2 h (CF-1, mouse, in vivo, 8 mg/kg, Study 2A, Lacosamide 8 mg/kg PO, 2 h, read-out: Mean Plasma): 10.8 µM
Kp at 2 h (CF-1, mouse, in vivo, 10 mg/kg, Study 2B, Lacosamide 10 mg/kg PO, 2 h, read-out: B/P Ratio): 0.21
concentration at 2 h (CF-1, mouse, in vivo, 10 mg/kg, Study 2B, Lacosamide 10 mg/kg PO, 2 h, read-out: Mean Brain): 2.63 µM
concentration at 2 h (CF-1, mouse, in vivo, 10 mg/kg, Study 2B, Lacosamide 10 mg/kg PO, 2 h, read-out: Mean Plasma): 12.6 µM
Kp at 2 h (CF-1, mouse, in vivo, 10 mg/kg, Study 2C, Lacosamide 10 mg/kg PO, 2 h, alone, read-out: B/P Ratio): 0.28
concentration at 2 h (CF-1, mouse, in vivo, 10 mg/kg, Study 2C, Lacosamide 10 mg/kg PO, 2 h, alone, read-out: Mean Brain): 4.84 µM
concentration at 2 h (CF-1, mouse, in vivo, 10 mg/kg, Study 2C, Lacosamide 10 mg/kg PO, 2 h, alone, read-out: Mean Plasma): 17.1 µM
Kp at 2 h (CF-1, mouse, in vivo, 20 mg/kg, Study 2D, Lacosamide 20 mg/kg PO, 2 h, read-out: B/P Ratio): 1.12
concentration at 2 h (CF-1, mouse, in vivo, 20 mg/kg, Study 2D, Lacosamide 20 mg/kg PO, 2 h, read-out: Mean Brain): 26.8 µM
concentration at 2 h (CF-1, mouse, in vivo, 20 mg/kg, Study 2D, Lacosamide 20 mg/kg PO, 2 h, read-out: Mean Plasma): 23.9 µM
Kp at 2 h (CF-1, mouse, in vivo, Study 2C, analyte Lacosamide, 10 mg/kg PO 2 h + Compound A 3 mg/kg PO 0.5 h, read-out: B/P Ratio): 0.29
concentration at 2 h (CF-1, mouse, in vivo, Study 2C, analyte Lacosamide, 10 mg/kg PO 2 h + Compound A 3 mg/kg PO 0.5 h, read-out: Mean Brain): 4.52 µM
concentration at 2 h (CF-1, mouse, in vivo, Study 2C, analyte Lacosamide, 10 mg/kg PO 2 h + Compound A 3 mg/kg PO 0.5 h, read-out: Mean Plasma): 15.5 µM

NC(=O)O[C@@H](Cn1ncnn1)c1ccccc1Cl [Cenobamate, reference compound]
concentration at 2 h (CF-1, mouse, in vivo, 3 mg/kg, Study 4D, Cenobamate 3 mg/kg single oral dose, 2 h pre-treatment, CF-1 mice, read-out: Mean Brain): 8.7 µM
concentration at 2 h (CF-1, mouse, in vivo, 3 mg/kg, Study 4D, Cenobamate 3 mg/kg single oral dose, 2 h pre-treatment, CF-1 mice, read-out: Mean Plasma): 29.6 µM
concentration at 2 h (CF-1, mouse, in vivo, 3 mg/kg, Study 4E, Cenobamate 3 mg/kg single oral dose, 2 h pre-treatment, CF-1 mice, read-out: Mean Brain): 12.2 µM
concentration at 2 h (CF-1, mouse, in vivo, 3 mg/kg, Study 4E, Cenobamate 3 mg/kg single oral dose, 2 h pre-treatment, CF-1 mice, read-out: Mean Plasma): 27.7 µM
concentration at 2 h (CF-1, mouse, in vivo, 5 mg/kg, Study 4E, Cenobamate 5 mg/kg single oral dose, 2 h pre-treatment, CF-1 mice, read-out: Mean Brain): 22.1 µM
concentration at 2 h (CF-1, mouse, in vivo, 5 mg/kg, Study 4E, Cenobamate 5 mg/kg single oral dose, 2 h pre-treatment, CF-1 mice, read-out: Mean Plasma): 53.6 µM
concentration at 2 h (CF-1, mouse, in vivo, 5 mg/kg, Study 4F, Cenobamate 5 mg/kg PO, 2 h, alone, read-out: mean plasma concentration): 31.3 µM
concentration at 2 h (CF-1, mouse, in vivo, 5 mg/kg, Study 4F, Cenobamate 5 mg/kg PO alone, 2 h pre-treatment, CF-1 mice, read-out: Mean Brain): 12 µM
concentration at 2 h (CF-1, mouse, in vivo, 5 mg/kg, Study 4F, Cenobamate 5 mg/kg PO alone, 2 h pre-treatment, CF-1 mice, read-out: Mean Plasma): 31.3 µM
concentration at 2 h (CF-1, mouse, in vivo, 7.5 mg/kg, Cenobamate 7.5 mg/kg PO, 2 h, alone, read-out: mean plasma concentration): 78.1 µM
concentration at 2 h (CF-1, mouse, in vivo, 7.5 mg/kg, Study 4E, Cenobamate 7.5 mg/kg single oral dose, 2 h pre-treatment, CF-1 mice, read-out: Mean Brain): 34.5 µM
concentration at 2 h (CF-1, mouse, in vivo, 7.5 mg/kg, Study 4E, Cenobamate 7.5 mg/kg single oral dose, 2 h pre-treatment, CF-1 mice, read-out: Mean Plasma): 78.1 µM
concentration at 2 h (CF-1, mouse, in vivo, 10 mg/kg, Cenobamate 10 mg/kg PO, 2 h, alone, read-out: mean plasma concentration): 87 µM
concentration at 2 h (CF-1, mouse, in vivo, 10 mg/kg, Study 4D, Cenobamate 10 mg/kg single oral dose, 2 h pre-treatment, CF-1 mice, read-out: Mean Brain): 26.8 µM
concentration at 2 h (CF-1, mouse, in vivo, 10 mg/kg, Study 4D, Cenobamate 10 mg/kg single oral dose, 2 h pre-treatment, CF-1 mice, read-out: Mean Plasma): 87 µM
concentration at 2 h (CF-1, mouse, in vivo, Study 4G, analyte Cenobamate, 5 mg/kg + 0.5 mg/kg Compound A, read-out: mean total plasma concentration): 41.1 µM
concentration at 2 h (CF-1, mouse, in vivo, Study 4G, analyte Cenobamate, 5 mg/kg + 1 mg/kg Compound A, read-out: mean total plasma concentration): 39.7 µM
Kp at 2 h (CF-1, mouse, in vivo, po, 3 mg/kg, Study 4D, Cenobamate 3 mg/kg single oral dose, read-out: B/P Ratio (brain to plasma ratio)): 0.29
Kp at 2 h (CF-1, mouse, in vivo, po, 3 mg/kg, Study 4E, Cenobamate 3 mg/kg single oral dose, read-out: B/P Ratio (brain to plasma ratio)): 0.44
Kp at 2 h (CF-1, mouse, in vivo, po, 5 mg/kg, Study 4E, Cenobamate 5 mg/kg single oral dose, read-out: B/P Ratio (brain to plasma ratio)): 0.41
Kp at 2 h (CF-1, mouse, in vivo, po, 5 mg/kg, Study 4F, Cenobamate 5 mg/kg PO alone, read-out: B/P Ratio (brain to plasma ratio)): 0.38
Kp at 2 h (CF-1, mouse, in vivo, po, 7.5 mg/kg, Study 4E, Cenobamate 7.5 mg/kg single oral dose, read-out: B/P Ratio (brain to plasma ratio)): 0.44
Kp at 2 h (CF-1, mouse, in vivo, po, 10 mg/kg, Study 4D, Cenobamate 10 mg/kg single oral dose, read-out: B/P Ratio (brain to plasma ratio)): 0.31
Kp (CF-1, mouse, in vivo, po, 30 mg/kg, Study 4D, Cenobamate 30 mg/kg single oral dose, read-out: B/P Ratio (brain to plasma ratio)): 0.3
concentration at 2 h (Study 4D, Cenobamate 30 mg/kg single oral dose, CF-1 mice, read-out: Mean Brain): 71.3 µM
concentration at 2 h (Study 4D, Cenobamate 30 mg/kg single oral dose, CF-1 mice, read-out: Mean Plasma): 237 µM
Mean Brain, Cenobamate (Study 4F, Cenobamate 5 mg/kg PO (2 h) in combination with Compound A 2 mg/kg PO (0.5 h)): 14.7 µM
Mean Brain, Cenobamate (Study 4G, Cenobamate 5 mg/kg PO (2 h) in combination with Compound A 0.5 mg/kg PO (0.5 h)): 18.1 µM
Mean Brain, Cenobamate (Study 4G, Cenobamate 5 mg/kg PO (2 h) in combination with Compound A 1 mg/kg PO (0.5 h)): 17.0 µM
